Assay results published in PMC12845261, “Design, Synthesis, and Biological Evaluation of N-Acyl-Hydrazone-Linked Quinazolinone Derivatives with Antioxidant, Antimicrobial, and Anticancer Potential” (Pharmaceuticals, 2025).
“And” between values parts separate entries of the source, which are not always exact repeats. Equal values may be shown once.

Columns and labels:
Artemia franciscana = Artemia franciscana toxicity assay (nauplii lethality); conditions: from LC50 at 48 h, standard aquatic toxicity classifications [53]
Protocol: (§1) The brine shrimp cysts (Artemia franciscana) were sourced from Great Salt Lake (USA) through Ocean Star International (Burlingame, CA, USA) via S.K. Trading (Bangkok, Thailand), which carried out the repackaging. Artificial seawater was prepared by dissolving a CoralMarine salt mixture (Grotech) in distilled water to achieve a concentration of about 30 g/L. The cysts were placed in artificial seawater at 25 °C under vigorous aeration. They were allowed to hatch 48 h before the onset of the test, the brine shrimp nauplii stage being selected for the toxicity assay.
(§2) The analyzed compounds were dissolved in 100 μL DMSO and then suspended in seawater to a final volume of 10 mL. The starting concentration was 1000 μM, followed by binary dilutions with seawater: 500 μM, 250 μM, 125 μM and 62.5 μM. A blank solution of 100 μL DMSO and seawater up to 10 mL was also prepared. 24 well-plates (6 × 4) were used and the assay was conducted in triplicate for each concentration and the blank solution. 15 ± 3 nauplii were added to each well, and the plates were placed into the dark. The viability of the nauplii was monitored at 24 and 48 h.
(§3) The LC50 was estimated by interpolation using RStudio 2025.09.2 [84, 85], the drc package. Several non-linear regression models were applied: generalized log logistic regressions (LL.2, LL2.2, LL.4, LL.5) and Weibull functions (W1.2, W1.3, W2.2, W2.3).

[1] = as above; conditions: Artemia franciscana (brine shrimp) nauplii, in vivo
Protocol: as §1, §2, §3

Cc1nc2ccccc2c(=O)n1CC(=O)NN [Compound 2, 2-(2-methyl-4-oxoquinazolin-3(4H)-yl)acetohydrazide]
Toxicity class (Artemia franciscana): moderate toxicity | LC50 at 48 h [1]: 335 µM and 77.2 µg/mL
